For seven substances, target mRNA knockdown results are on record in the OligoGym collection.

HELM strings list units from the 5' end as sugar, base in round brackets, then linkage (d deoxyribose, r ribose, m 2'-O-methyl, p phosphodiester). Strings are as the collection lists them, not checked against the first reports. ss, as = sense and antisense strand; [lna] = locked nucleic acid (LNA); [s4r] = 4'-thioribose; [fl2r] = 2'-fluoro
Note: test system not given here.

The conditions of this data set: siRNA.
“RNA1{r(G)p.r(C)p.r(U)p.r(G)p.r(A)p.r(A)p.r(C)p.[fl2r](U)p.r(A)p.r(G)p.r(U)p.r(C)p.r(G)p.r(A)p.r(A)p.r(A)p.r(G)p.r(A)p.r(A)p.r(T)p.r(T)}|RNA2{r(U)p.r(U)p.r(C)p.r(U)p.r(U)p.r(U)p.r(C)p.r(G)p.r(A)p.r(C)p.[fl2r](U)p.r(A)p.r(G)p.r(U)p.r(U)p.r(C)p.r(A)p.r(G)p.r(C)p.r(T)p.r(T)}$$$RNA1{StrandType:ss}|RNA2{StrandType:as}$” had a target mRNA knockdown of 79%. As for “RNA1{m(U)p.r(C)p.m(U)p.r(C)p.m(G)p.r(U)p.m(A)p.r(A)p.m(G)p.r(G)p.m(A)p.r(C)p.m(G)p.r(A)p.m(A)p.r(A)p.m(C)p.r(G)p.r(A)p.r(T)p.r(T)}|RNA2{r(U)p.r(C)p.r(G)p.r(U)p.r(U)p.r(U)p.r(C)p.r(G)p.r(U)p.r(C)p.r(C)p.r(U)p.r(U)p.r(A)p.r(C)p.r(G)p.r(A)p.r(G)p.r(A)p.r(T)p.r(T)}$$$RNA1{StrandType:ss}|RNA2{StrandType:as}$”, the figure is 34%; as for “RNA1{r(A)p.r(A)p.r(A)p.r(C)p.r(A)p.r(U)p.r(G)p.r(C)p.r(A)p.r(G)p.r(A)p.r(A)p.r(A)p.r(A)p.r(U)p.r(G)p.r(C)p.r(U)p.r(G)p.r(T)p.r(T)}|RNA2{r(C)p.r(A)p.r(G)p.r(C)p.r(A)p.r(U)p.r(U)p.r(U)p.r(U)p.r(C)p.r(U)p.r(G)p.r(C)p.r(A)p.r(U)p.[s4r](G)p.[s4r](U)p.[s4r](U)p.[s4r](U)p.r(T)p.r(T)}$$$RNA1{StrandType:ss}|RNA2{StrandType:as}$”, 52.7%; as for “RNA1{r(C)p.r(G)p.r(U)p.r(A)p.r(C)p.r(G)p.r(C)p.r(G)p.r(G)p.r(A)p.r(A)p.r(U)p.r(A)p.m(C)p.m(U)p.m(U)p.m(C)p.m(G)p.m(A)p.r(T)p.r(T)}|RNA2{r(U)p.r(C)p.r(G)p.r(A)p.r(A)p.r(G)p.r(U)p.r(A)p.r(U)p.r(U)p.r(C)p.r(C)p.r(G)p.r(C)p.r(G)p.r(U)p.r(A)p.r(C)p.r(G)p.r(T)p.r(T)}$$$RNA1{StrandType:ss}|RNA2{StrandType:as}$”, 94.2%. As for “RNA1{[s4r](A)p.[s4r](A)p.[s4r](A)p.[s4r](C)p.r(A)p.r(U)p.r(G)p.r(C)p.r(A)p.r(G)p.r(A)p.r(A)p.r(A)p.r(A)p.r(U)p.[s4r](G)p.[s4r](C)p.[s4r](U)p.[s4r](G)p.r(T)p.r(T)}|RNA2{r(C)p.r(A)p.r(G)p.r(C)p.r(A)p.r(U)p.r(U)p.r(U)p.r(U)p.r(C)p.r(U)p.r(G)p.r(C)p.r(A)p.r(U)p.r(G)p.r(U)p.r(U)p.r(U)p.r(T)p.r(T)}$$$RNA1{StrandType:ss}|RNA2{StrandType:as}$”, the figure is 79.1%; as for “RNA1{m(U)p.r(A)p.r(G)p.r(C)p.m(C)p.r(A)p.r(G)p.r(A)p.r(G)p.r(C)p.m(C)p.r(A)p.r(A)p.r(A)p.r(G)p.r(A)p.r(A)p.r(G)p.r(C)p.r(T)p.r(T)}|RNA2{r(G)p.r(C)p.r(U)p.r(U)p.r(C)p.r(U)p.r(U)p.r(U)p.r(G)p.m(G)p.r(C)p.r(U)p.r(C)p.r(U)p.r(G)p.m(G)p.m(C)p.m(U)p.r(A)p.r(T)p.r(T)}$$$RNA1{StrandType:ss}|RNA2{StrandType:as}$”, 85%; as for “RNA1{r(G)p.r(A)p.r(C)p.r(G)p.r(U)p.r(A)p.r(A)p.r(A)p.r(C)p.r(G)p.r(G)p.r(C)p.r(C)p.r(A)p.r(C)p.r(A)p.r(A)p.r(G)p.r(U)p.r(U)p.r(C)}|RNA2{r(A)p.r(C)p.r(U)p.r(U)p.r(G)p.r(U)p.r(G)p.r(G)p.r(C)p.r(C)p.r(G)p.r(U)p.r(U)p.r(U)p.r(A)p.r(C)p.r(G)p.r(U)p.[lna](C)p.[lna](G)p.r(C)}$$$RNA1{StrandType:ss}|RNA2{StrandType:as}$”, 86.3%.
